One experiment deals with T1, CYP3A4 (Homo sapiens, UniProt P08684).
T1 construct: purchased BD Biosciences
The experiment can be described thus: CYP inhibition assay, recombinant enzyme, fluorescence. The conditions noted are these: test concentrations 1.1, 3.3 and 10 μM; read-out: Cytochrome P450 3A4 IC50. The experiment is classed as in vitro ADME. The method, then:
CYP inhibition was performed with the recombinant enzymes CYP1A2, CYP2B6, CYP2C9, CYP2C19, CYP2D6, and CYP3A4 obtained from BD Biosciences. Compounds for CYP inhibition testing were prepared as 10 mM stock solutions in DMSO. Isoform-specific substrates were incubated at 37 °C individually with P450 enzymes (Table 5) and a range of test compound concentrations (1.1, 3.3 and 10 μM) in duplicate. Each isoform was tested separately with one reference compound, a known positive control inhibitor. […] At the end of the incubation, product formation was monitored with fluorescence detection.

The target in another experiment is T2, human mGlu4 receptor (Homo sapiens, UniProt Q14833).
T2 construct: expressed in transfected cells; host or cells: T-REx 293 (tetracycline-inducible)
T2 sequence (Q14833 33-912): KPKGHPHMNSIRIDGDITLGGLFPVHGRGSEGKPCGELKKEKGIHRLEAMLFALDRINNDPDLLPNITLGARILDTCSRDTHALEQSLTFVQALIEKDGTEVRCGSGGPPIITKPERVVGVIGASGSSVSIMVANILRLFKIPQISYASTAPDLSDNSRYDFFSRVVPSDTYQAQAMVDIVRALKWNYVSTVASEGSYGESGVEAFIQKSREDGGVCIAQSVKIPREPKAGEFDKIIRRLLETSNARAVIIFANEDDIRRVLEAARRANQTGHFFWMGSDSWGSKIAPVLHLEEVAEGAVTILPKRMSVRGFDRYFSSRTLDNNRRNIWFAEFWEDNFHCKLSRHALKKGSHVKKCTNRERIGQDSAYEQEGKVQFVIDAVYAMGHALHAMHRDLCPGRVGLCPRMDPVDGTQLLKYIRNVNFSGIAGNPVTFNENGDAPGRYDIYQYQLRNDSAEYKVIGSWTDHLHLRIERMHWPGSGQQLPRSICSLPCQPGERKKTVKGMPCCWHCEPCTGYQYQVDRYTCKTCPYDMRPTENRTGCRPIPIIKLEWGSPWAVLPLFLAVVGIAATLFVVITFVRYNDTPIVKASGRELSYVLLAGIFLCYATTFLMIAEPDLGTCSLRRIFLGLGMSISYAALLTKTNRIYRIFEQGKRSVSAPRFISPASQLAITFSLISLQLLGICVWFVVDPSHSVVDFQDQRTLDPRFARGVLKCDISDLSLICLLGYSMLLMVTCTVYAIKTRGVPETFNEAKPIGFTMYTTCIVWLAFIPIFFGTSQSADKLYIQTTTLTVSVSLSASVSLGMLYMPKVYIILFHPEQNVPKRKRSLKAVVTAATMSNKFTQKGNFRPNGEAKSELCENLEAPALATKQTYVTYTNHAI
Put plainly: mGlu4 receptor selectivity, cAMP accumulation screening at 10 µM. The experiment is classed as cell-based. On the procedure:
The cell lines with the tetracycline-inducible expression of human metabotropic receptors 4, 7, and 8 were described in detail by Chruścicka et al. (mGlu4 receptor NM_000841, mGlu7 receptor NM_000844.2, and mGlu8 receptor NM_000845). Cells were grown under standard cell culture conditions (37 °C, 5% CO2) in DMEM supplemented with 10% tetracycline-free FBS. The expression was induced through the addition of tetracycline to the culture medium at 0.75 μg/mL.
The determination of the intracellular cAMP through homogeneous time-resolved fluorescence (HTRF) was described in detail previously. […] The intracellular concentration of cyclic AMP was measured by means of a cAMP Gi HTRF kit from Cisbio, according to the manufacturer’s instructions. After 1 h of incubation at room temperature, the fluorescence at 620 nm and 665 nm was read (Tecan Infinite M1000). The results were calculated as the 665 nm/620 nm ratio multiplied by 10^4. […] Data were analyzed using GraphPad Prism version 5.04 for Windows (GraphPad Software, San Diego, USA).
Firstly, all compounds were screened at 10 μM using three cell lines expressing the mGlu4/7/8 receptor to evaluate selectivity. […] For compounds that passed the screening procedure, the dose–response curve in the presence of LSP4-2022 in 5 μM was evaluated compared to reference NAM ADX71743. […]
On the technique in general: Cyclic AMP is a second messenger, typically raised through Gs and lowered through Gi signalling.

Another experiment addresses T3, CYP2C19 (Homo sapiens, UniProt P33261).
T3 construct: purchased BD Biosciences
The experiment can be described thus: CYP inhibition assay, recombinant enzyme, fluorescence. Type of experiment: in vitro ADME. The conditions noted are these: test concentrations 1.1, 3.3 and 10 μM; read-out: Cytochrome P450 2C19 IC50. On the procedure: (§1) CYP inhibition was performed with the recombinant enzymes CYP1A2, CYP2B6, CYP2C9, CYP2C19, CYP2D6, and CYP3A4 obtained from BD Biosciences. Compounds for CYP inhibition testing were prepared as 10 mM stock solutions in DMSO. Isoform-specific substrates were incubated at 37 °C individually with P450 enzymes (Table 5) and a range of test compound concentrations (1.1, 3.3 and 10 μM) in duplicate. Each isoform was tested separately with one reference compound, a known positive control inhibitor. During preincubation, the 96-well black plates were scanned with a fluorescence plate reader to eliminate false results originating from the autofluorescence of the test compounds. At the end of the incubation, product formation was monitored with fluorescence detection. A decrease in the formation of the metabolite compared to the “no inhibition” control samples was used to calculate the IC50 value.

The next experiment addresses T4, CYP2D6 (Homo sapiens, UniProt P10635).
T4 construct: purchased BD Biosciences
Described as above. The conditions noted are these: test concentrations 1.1, 3.3 and 10 μM; read-out: Cytochrome P450 2D6 IC50. The experiment is classed as in vitro ADME. On the procedure: as §1

Structures are written as SMILES. Some results are limits rather than exact numbers.

T1 sequence (P08684 whole entry): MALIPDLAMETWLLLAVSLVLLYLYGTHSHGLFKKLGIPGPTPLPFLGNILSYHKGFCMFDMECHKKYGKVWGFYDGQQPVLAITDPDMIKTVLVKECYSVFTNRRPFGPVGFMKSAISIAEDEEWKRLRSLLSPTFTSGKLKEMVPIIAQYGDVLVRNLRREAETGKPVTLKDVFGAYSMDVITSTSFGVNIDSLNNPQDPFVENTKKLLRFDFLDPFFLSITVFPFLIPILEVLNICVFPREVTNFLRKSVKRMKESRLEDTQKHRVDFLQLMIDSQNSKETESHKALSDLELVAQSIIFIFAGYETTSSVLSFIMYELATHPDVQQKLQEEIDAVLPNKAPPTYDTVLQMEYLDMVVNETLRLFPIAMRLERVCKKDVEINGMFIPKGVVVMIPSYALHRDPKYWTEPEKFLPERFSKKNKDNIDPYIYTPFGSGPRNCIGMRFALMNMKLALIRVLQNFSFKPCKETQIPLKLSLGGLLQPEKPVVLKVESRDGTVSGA
T4 sequence (P10635 whole entry): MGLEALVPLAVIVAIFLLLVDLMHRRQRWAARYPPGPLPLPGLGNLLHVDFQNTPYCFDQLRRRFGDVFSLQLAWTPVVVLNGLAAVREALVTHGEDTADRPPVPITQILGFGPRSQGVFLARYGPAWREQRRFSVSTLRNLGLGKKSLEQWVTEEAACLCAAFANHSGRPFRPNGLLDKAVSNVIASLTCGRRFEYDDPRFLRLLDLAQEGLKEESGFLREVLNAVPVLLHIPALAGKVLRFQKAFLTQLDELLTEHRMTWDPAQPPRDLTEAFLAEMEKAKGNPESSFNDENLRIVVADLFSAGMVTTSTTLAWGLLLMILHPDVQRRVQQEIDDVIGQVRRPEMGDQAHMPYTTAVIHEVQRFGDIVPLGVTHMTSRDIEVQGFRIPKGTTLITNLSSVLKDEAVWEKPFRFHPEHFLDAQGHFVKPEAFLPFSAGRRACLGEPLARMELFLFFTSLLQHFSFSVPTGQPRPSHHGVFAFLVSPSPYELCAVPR
T3 sequence (P33261 whole entry): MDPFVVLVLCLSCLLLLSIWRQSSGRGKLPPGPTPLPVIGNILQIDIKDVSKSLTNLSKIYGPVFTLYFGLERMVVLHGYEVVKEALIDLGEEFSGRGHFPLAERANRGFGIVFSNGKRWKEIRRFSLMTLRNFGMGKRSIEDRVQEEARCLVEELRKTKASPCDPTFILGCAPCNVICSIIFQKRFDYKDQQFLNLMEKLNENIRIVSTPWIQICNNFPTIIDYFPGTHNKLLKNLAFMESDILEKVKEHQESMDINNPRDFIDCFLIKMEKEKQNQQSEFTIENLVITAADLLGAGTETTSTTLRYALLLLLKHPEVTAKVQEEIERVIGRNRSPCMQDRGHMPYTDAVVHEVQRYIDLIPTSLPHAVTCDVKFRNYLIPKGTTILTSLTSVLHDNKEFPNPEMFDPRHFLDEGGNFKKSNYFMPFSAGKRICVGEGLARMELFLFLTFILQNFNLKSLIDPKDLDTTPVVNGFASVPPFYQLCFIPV

On to `Cn1c(-c2ccccc2Cl)nc2ccc(-c3ccccc3)cc2c1=O` [ALX-065, 2-(2-chlorophenyl)-3-methyl-6-phenylquinazolin-4(3H)-one], for which the IC50 on CYP3A4 was above 10 µM; on CYP2C19, 1.1 to 3.3 µM; on CYP2D6 it was above 10 µM. The “mGlu4 NAM activity” value at human mGlu4 receptor (at 10 µM) stood at 19.6%.

Regarding `COc1cccc(-c2ccc3nc(-c4ccccc4Cl)n(C)c(=O)c3c2)c1OC` [ALX-171, 2-(2-chlorophenyl)-6-(2,3-dimethoxyphenyl)-3-methylquinazolin-4(3H)-one], the 50% inhibitory concentration (IC50) at CYP3A4 was 3.3 to 10 µM; on CYP2C19, 3.3 to 10 µM; on CYP2D6 it was above 10 µM. In addition, the “selectivity over mGlu4” value at human mGlu4 receptor (group III mGlu receptors) was “selective”.

Broadly, the IC50 is the concentration that gives 50% inhibition.
